The text below walks through data of patent publication US11931397B2, “Methods and compositions for the treatment of Sengers syndrome” (Stealth BioTherapeutics Inc., priority 2018, dated 2024).

Where a SMILES comes first, the peptide text is derived from it. Where no end group is shown, it is not given here. [ ]: non-standard residue; d: D form. Dmt = Cc1cc(O)cc(C)c1C[C@H](N)C(=O)O

In data set [1] the test system is several mammalian cell types. As to conditions: cited from earlier work.
For data set [2], the system named is patient with a homozygous AGK founder mutation (Sengers syndrome). As to conditions: approximately six months, 0.25 then 0.50 mg/kg/day intravenous. The procedure: The patient was treated with D-Arg-2′6′-Dmt-Lys-Phe-NH2 for approximately six months through a compassionate care protocol.
Another data set concerns the target mu-opioid receptor (Homo sapiens, UniProt P35372). The data set can be described thus: Mu-opioid receptor agonist activity (stated, no test described). To be noted: statement of the description, no test given.

Chain of mu-opioid receptor (P35372 whole entry, species assumed): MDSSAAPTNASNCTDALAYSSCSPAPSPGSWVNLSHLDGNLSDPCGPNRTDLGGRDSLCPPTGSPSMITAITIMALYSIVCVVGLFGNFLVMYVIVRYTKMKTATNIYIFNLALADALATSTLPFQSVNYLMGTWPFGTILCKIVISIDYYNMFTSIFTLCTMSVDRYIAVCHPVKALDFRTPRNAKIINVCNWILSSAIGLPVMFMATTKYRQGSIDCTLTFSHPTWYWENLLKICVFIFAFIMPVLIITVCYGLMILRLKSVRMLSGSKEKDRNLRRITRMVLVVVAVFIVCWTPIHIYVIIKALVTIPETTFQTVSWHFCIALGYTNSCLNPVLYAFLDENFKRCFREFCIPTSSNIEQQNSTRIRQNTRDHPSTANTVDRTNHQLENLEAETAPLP

For 2′, 6′-Dmt-D-Arg-Phe-Lys-NH2, the “Penetration of the plasma membrane” value in data set [1] is “readily penetrates the plasma membrane of several mammalian cell types in an energy-independent manner”. For `Cc1cc(O)cc(C)c1C[C@H](NC(=O)[C@H](N)CCCNC(=N)N)C(=O)N[C@@H](CCCCN)C(=O)N[C@@H](Cc1ccccc1)C(N)=O` [D-Arg-2′6′-Dmt-Lys-Phe-NH2] (H-[dR][Dmt]KF-NH2), the “Side effects attributable to treatment” value in data set [2] was “no discernable side effects”.

Consider F[dR]FK-NH2, for which, at mu-opioid receptor, the “mu-opioid receptor agonist activity” value is on record as “does not have mu-opioid receptor agonist activity”. Same read-out and setting: the entry for Tyr-D-Arg-Phe-Lys-NH2 is “has mu-opioid receptor agonist activity”.
